Results: patent publication US20110244049A1, “COMPOSITIONS COMPRISING 4-(2-(5-BROMO-4-(1-CYCLOPROPYLNAPHTHALEN-4-YL)-4H-1,2,4-TRIAZOL-3-YLTHIO)ACETAMIDO)-3-CHLOROBENZOIC ACID AND PHARMACEUTICALLY ACCEPTABLE SALTS THEREOF, AND METHODS FOR PREPARING AND USING SAME” (ARDEA BIOSCIENCES INC., priority 2008, published 2011)

Test system: serum uric acid
Experiment: Serum uric acid levels on day 9 of the study (Example 6)
Format: in vivo, human
Procedure: Human clinical studies using the compositions described in examples 2A, 3A, 4A, 5A were conducted as described: A multi-center, double-blind, placebo-controlled study in 48 treatment-naïve HIV-1-infected subjects, randomized 3:1 (treatment:placebo). Patients were male, 18-65 years with chronic HIV infection, but no history of AIDS-defining illness. Patients were antiretroviral treatment naïve or <14 days prior therapy and had no pre-existing RTI or PI drug resistance and no co-infection with acute HAV, chronic HBV, active HCV. Patient CD4+ cell count was ≧50 cells/mm^3 for 2 cohorts, then ≧200 cells/mm^3 or ≧350 cells/mm^3 depending on site.
The compositions were administered over a 7-day treatment period plus one morning dose for PK purposes on day 8. (It should be noted that in some instances multiple doses of the same composition were administered, in order to achieve the required total dose of compound 1; i.e.in order to achieve a dose of 400 mg compound 1, a patient may have taken four 100 mg compositions or two 200 mg compositions, depending on the dosage form.) Four sequential dose cohorts were administered as follows:
Serum uric acid levels were recorded on day 9 of the study, and are shown in the table below and graphically in FIG. 8.

O=C(CSc1nnc(Br)n1-c1ccc(C2CC2)c2ccccc12)Nc1ccc(C(=O)O)cc1Cl [Compound 1, 4-(2-(5-bromo-4-(1-cyclopropylnaphthalen-4-yl)-4H-1,2,4-triazol-3-ylthio)acetamido)-3-chlorobenzoic acid]
Mean serum UA reduction (400 mg BID): −30% | Mean serum UA reduction (600 mg QD): −21% | Mean serum UA reduction (800 mg QD): −21% | Mean serum UA reduction (1000 mg QD): −28%
